Entries after “also recorded” stand apart in the source; their conditions may differ.
Legend:
CYP3A [1] = assay: Midazolam; format: in vivo, human
CYP2C9 [2] = target: CYP2C9 (Homo sapiens, UniProt P11712); assay: Tolbutamide; format: in vivo
P‐gp [3] = target: P‐gp (Homo sapiens, UniProt P08183); assay: Digoxin; format: in vivo
CYP2C19 [4] = target: CYP2C19 (Homo sapiens, UniProt P33261); assay: Omeprazole
[5] = Safety in midazolam/tolbutamide study; format: in vivo, human
[6] = Safety in omeprazole/digoxin study; format: in vivo, human
CYP3A [7] = conditions: ref unpublished in vitro studies, cited from earlier work
CYP2C9 [8] = conditions: read-out: IC50 for CYP2C9 inhibition; in vitro; ref unpublished in vitro studies; cited from earlier work
CYP2C19 [9] = conditions: in vitro data; ref unpublished in vitro studies; cited from earlier work
P‐gp [10] = conditions: cited from earlier work
CYP3A [11] = conditions: human liver microsome, concentration-dependent; ref unpublished data; cited from earlier work
[12] = cited from earlier work
[13] = coadministered with pexidartinib
[14] = coadministered with pexidartinib 1800 mg
[15] = after multiple doses of pexidartinib
[16] = coadministration with single dose of pexidartinib
[17] = coadministered with single dose pexidartinib
[18] = omeprazole plus pexidartinib vs omeprazole only

Sequence of P‐gp (Homo sapiens, UniProt P08183) (P08183 whole entry): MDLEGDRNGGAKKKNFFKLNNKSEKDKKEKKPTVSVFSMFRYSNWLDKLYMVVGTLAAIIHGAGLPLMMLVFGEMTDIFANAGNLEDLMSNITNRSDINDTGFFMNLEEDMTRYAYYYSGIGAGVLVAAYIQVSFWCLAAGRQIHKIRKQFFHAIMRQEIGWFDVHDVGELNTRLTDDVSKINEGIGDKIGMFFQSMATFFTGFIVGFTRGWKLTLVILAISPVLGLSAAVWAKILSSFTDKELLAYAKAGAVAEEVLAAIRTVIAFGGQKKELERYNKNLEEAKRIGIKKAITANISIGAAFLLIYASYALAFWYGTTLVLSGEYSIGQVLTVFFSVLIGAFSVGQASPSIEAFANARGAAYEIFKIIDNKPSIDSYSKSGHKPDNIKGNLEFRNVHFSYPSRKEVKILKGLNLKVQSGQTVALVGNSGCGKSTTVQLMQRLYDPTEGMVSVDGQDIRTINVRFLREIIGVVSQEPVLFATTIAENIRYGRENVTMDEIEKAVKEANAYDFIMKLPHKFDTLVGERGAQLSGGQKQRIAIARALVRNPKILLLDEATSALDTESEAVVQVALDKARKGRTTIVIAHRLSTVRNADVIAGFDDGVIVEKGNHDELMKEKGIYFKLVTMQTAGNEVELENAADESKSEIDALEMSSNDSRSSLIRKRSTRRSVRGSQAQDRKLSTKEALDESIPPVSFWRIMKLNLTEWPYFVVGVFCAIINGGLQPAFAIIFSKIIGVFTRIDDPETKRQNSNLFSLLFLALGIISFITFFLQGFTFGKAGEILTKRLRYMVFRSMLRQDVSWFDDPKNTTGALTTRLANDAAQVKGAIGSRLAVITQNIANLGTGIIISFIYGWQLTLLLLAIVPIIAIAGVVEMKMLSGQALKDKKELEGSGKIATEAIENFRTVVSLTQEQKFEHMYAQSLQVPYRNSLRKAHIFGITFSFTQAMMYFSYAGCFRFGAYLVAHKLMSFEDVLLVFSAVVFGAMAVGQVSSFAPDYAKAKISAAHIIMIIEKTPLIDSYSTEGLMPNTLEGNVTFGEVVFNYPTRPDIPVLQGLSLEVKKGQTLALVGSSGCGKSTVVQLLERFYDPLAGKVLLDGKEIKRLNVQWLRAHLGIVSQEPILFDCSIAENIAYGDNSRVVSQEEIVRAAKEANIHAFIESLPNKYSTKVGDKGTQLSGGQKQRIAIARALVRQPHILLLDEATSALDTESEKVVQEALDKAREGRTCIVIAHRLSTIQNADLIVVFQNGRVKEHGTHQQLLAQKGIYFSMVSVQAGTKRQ
Sequence of CYP2C19 (Homo sapiens, UniProt P33261) (P33261 whole entry): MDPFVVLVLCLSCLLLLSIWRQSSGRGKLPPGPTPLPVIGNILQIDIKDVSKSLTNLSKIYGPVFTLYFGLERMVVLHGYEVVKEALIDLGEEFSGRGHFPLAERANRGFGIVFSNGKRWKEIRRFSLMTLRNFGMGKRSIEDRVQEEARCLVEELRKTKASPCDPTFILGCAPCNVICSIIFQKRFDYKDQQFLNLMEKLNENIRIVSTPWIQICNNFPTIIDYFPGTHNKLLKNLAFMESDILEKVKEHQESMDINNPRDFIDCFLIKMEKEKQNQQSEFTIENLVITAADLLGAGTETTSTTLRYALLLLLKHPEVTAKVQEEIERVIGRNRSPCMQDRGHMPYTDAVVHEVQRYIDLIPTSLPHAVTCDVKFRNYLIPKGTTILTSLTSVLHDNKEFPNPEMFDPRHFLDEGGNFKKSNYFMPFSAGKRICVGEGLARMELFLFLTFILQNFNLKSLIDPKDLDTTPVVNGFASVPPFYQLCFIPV
Sequence of CYP2C9 (Homo sapiens, UniProt P11712) (P11712 whole entry): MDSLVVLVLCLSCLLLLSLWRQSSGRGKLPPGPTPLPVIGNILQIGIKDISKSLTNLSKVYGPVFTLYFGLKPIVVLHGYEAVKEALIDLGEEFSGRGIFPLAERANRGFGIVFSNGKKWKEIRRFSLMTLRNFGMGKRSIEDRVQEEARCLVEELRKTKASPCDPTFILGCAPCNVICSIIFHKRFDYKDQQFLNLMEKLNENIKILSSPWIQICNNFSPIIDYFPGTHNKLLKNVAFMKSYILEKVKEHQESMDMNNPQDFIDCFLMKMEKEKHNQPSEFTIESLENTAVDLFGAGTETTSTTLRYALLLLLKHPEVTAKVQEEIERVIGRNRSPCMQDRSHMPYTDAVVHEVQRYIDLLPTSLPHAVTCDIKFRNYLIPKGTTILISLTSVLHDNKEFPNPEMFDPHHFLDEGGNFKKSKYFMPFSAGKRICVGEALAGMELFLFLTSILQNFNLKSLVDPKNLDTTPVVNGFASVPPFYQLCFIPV

OCc1ncc2n1-c1ccc(Cl)cc1C(c1ccccc1F)=NC2 [1‐hydroxy midazolam]
exposure to 1-hydroxy midazolam (CYP3A [1]; with or without concomitant pexidartinib): similar

CCCCNC(=O)NS(=O)(=O)c1ccc(CO)cc1 [4‐hydroxy tolbutamide]
exposure to 4-hydroxy tolbutamide (CYP2C9 [2]; during pexidartinib coadministration): decrease

C[C@H]1O[C@@H](O[C@H]2[C@@H](O)C[C@H](O[C@H]3[C@@H](O)C[C@H](O[C@H]4CC[C@@]5(C)[C@H](CC[C@@H]6[C@@H]5C[C@@H](O)[C@]5(C)[C@@H](C7=CC(=O)OC7)CC[C@]65O)C4)O[C@@H]3C)O[C@@H]2C)C[C@H](O)[C@@H]1O [digoxin]
effect on digoxin AUClast (P‐gp [3]; [13]): no significant effect; also recorded: nonsignificant effect | effect on digoxin time to reach Cmax or shape of plasma concentration-time curve (P‐gp [3]; [13]): no apparent effect | increase in digoxin AUClast (P‐gp [3]; [14]): 8% | increase in digoxin Cmax (P‐gp [3]; [14]): 32%

Cc1ncc2n1-c1ccc(Cl)cc1C(c1ccccc1F)=NC2 [midazolam]
decrease in midazolam AUClast (CYP3A [1]; [15]): 52% | decrease in midazolam Cmax (CYP3A [1]; [15]): 28% | decrease in midazolam AUClast (CYP3A [1]; [16]): 21% | decrease in midazolam Cmax (CYP3A [1]; [16]): 9%

COc1ccc2[nH]c([S+]([O-])Cc3ncc(C)c(OC)c3C)nc2c1 (stereo not drawn) [omeprazole]
decrease in Cmax for omeprazole (CYP2C19 [4]; [17]): 37% | omeprazole tmax (CYP2C19 [4]; [17]): 3 h | AUC(0-inf) (CYP2C19 [4]; human, plasma, oral, 40 mg): 1740 ng·h/mL | AUC(0-t) (CYP2C19 [4]; human, plasma, oral, 40 mg): 1730 ng·h/mL | tmax (CYP2C19 [4]; human, plasma, oral, 40 mg): 2.25 h | Cmax (CYP2C19 [4]; human, plasma, po, 40 mg): 908 ng/mL | AUCinf geometric LS mean ratio (CYP2C19 [4]; [18]): 83.2% | AUClast geometric LS mean ratio (CYP2C19 [4]; [18]): 77.4% | Cmax geometric LS mean ratio (CYP2C19 [4]; [18]): 62.8%

FC(F)(F)c1ccc(CNc2ccc(Cc3c[nH]c4ncc(Cl)cc34)cn2)cn1 [pexidartinib]
in vivo effect on CYP3A (FDA criteria) (CYP3A [1]; midazolam probe): moderate inducer | in vivo effect on CYP2C9 (FDA criteria) (CYP2C9 [2]; tolbutamide probe): weak inhibitor | in vivo effect on P-gp transport (P‐gp [3]; digoxin probe): does not significantly affect | subjects with a grade 4 TEAE ([5]; 30 subjects with tumors): 4 subjects | subjects with grade 3 TEAEs ([5]; 30 subjects with tumors): 40% | subjects who discontinued treatment due to pexidartinib-related TEAEs ([5]; drug hypersensitivity, increased blood bilirubin): 7% | grade 4 TEAEs considered related to pexidartinib ([5]; increased bilirubin): 1 | tolerability ([5]; midazolam/tolbutamide study): generally well tolerated | grade 3 TEAEs considered related to pexidartinib ([5]; of 22 grade 3 TEAEs): 9 | TEAEs considered related to pexidartinib (all pruritus) ([6]; 20 healthy subjects): Three | intensity of TEAEs ([6]; 20 healthy subjects): mild (grade 1) | subjects who experienced a TEAE ([6]; 20 healthy subjects, single dose 1800 mg): 40% | tolerability ([6]; omeprazole/digoxin study): generally well tolerated | type of in vitro effect on CYP3A (CYP3A [7]; in vitro data): direct and time‐dependent inhibitor and an inducer | IC50 (CYP3A [7]; read-out: IC50 for CYP3A inhibition, in vitro): 16.7 µM | IC50 (CYP2C9 [8]): 3.7 µM | time dependence of inhibitory effect on CYP2C19 (CYP2C19 [9]): not time dependent | time dependence of inhibitory effect on P-gp (P‐gp [10]; in vitro data, ref unpublished in vitro studies): not time dependent | IC50 (P‐gp [10]; read-out: in vitro IC50 for P-gp, preclinical data, ref data on file): 43.4 µM | effect on midazolam hydroxylation (CYP3A [11]): activated midazolam hydroxylation | delay of tmax with high-fat meal [12]: 1.5 h | effect of high-fat meal on exposure [12]: doubles | elimination half-life [12]: 26.6 h | accumulation ratio (exposure vs first dose) ([12]; multiple dosing, twice-daily regimen): ≈ 3.6 times | tmax ([12]; oral administration): ≈ 2.5 hours | in vivo effect on CYP2C19-mediated metabolism (CYP2C19 [4]; omeprazole probe): does not significantly affect

Source: article PMC7891582 (Journal of Clinical Pharmacology, 2020)
